Here are results for seven compounds from the supplement of paper PMC11061612.

Experiment [1] relates to NCI-H2731 (Mesothelioma). Put plainly: combination Emax (second highest fraction inhibited in the dose matrix, 72 h); higher = more inhibition; extreme values may be limits of the assay. In outline:
(§1)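 After 24 hours at 37°C and 5% CO2 in 1536-well plates, cells in DMEM/F12 or RPMI plus 10% FBS received two-drug dose matrices for 72 hours. Viability came from CellTiter-Glo 2.0 luminescence and was scaled as inhibition, anchored at 0 by vehicle wells and at 1 by blank wells. Combination Emax is taken as the second-highest inhibition in the matrix, and Bliss excess as the observed combination effect less EA + EB − EA·EB, with EA and EB the single-agent effects.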

The test system of experiment [2] is MN-60 (B-Lymphoblastic Leukemia). Put plainly: Bliss excess, mean over the matrix (fraction); higher = more synergy. In short, it runs like this: as §1
The subject of a further experiment is SJSA-1 (Osteosarcoma). The description is as above. In short, it runs like this: as §1
Experiment [3] deals with CW-2 (Colorectal Carcinoma). The description is as above. In short, it runs like this: as §1
The test system of experiment [4] is NCCIT (Other Solid Carcinomas). The experiment is described as above. In outline:
as §1

In experiment [5] the test system is KP-3 (Pancreatic Carcinoma). Described as above. In short, it runs like this:
as §1

In experiment [6] the test system is NCI-H929 (Plasma Cell Myeloma). The description is as above. In outline:
as §1

The subject of experiment [7] is OCI-AML3 (Acute Myeloid Leukemia). Described as above. In short, it runs like this: as §1
Experiment [8] relates to NCI-H520 (Squamous Cell Lung Carcinoma). The description is as above. In short, it runs like this: as §1
Experiment [9] deals with NCI-H3122 (Lung Adenocarcinoma). The description is as above. In short, it runs like this:
as §1

In experiment [10] the test system is MOG-G-CCM (Low Grade Glioma). The description is as above. In outline:
as §1

Experiment [11] deals with NCI-H2731 (Mesothelioma). Described as above. In short, it runs like this:
as §1

Experiment [12] relates to VMRC-RCZ (Kidney Carcinoma). The experiment is described as above. In short, it runs like this: as §1
Experiment [13] concerns NCI-H526 (Small Cell Lung Carcinoma). The experiment is described as above. In short, it runs like this:
as §1

Experiment [14] deals with DMS-114 (Small Cell Lung Carcinoma). The experiment is described as above. In short, it runs like this:
as §1

Experiment [15] deals with SK-GT-4 (Esophageal Adenocarcinoma). Described as above. In outline: as §1
A further experiment has as its system M059J (Glioblastoma). Described as above. In outline:
as §1

Experiment [16] concerns KYSE-270 (Esophageal Squamous Cell Carcinoma). The description is as above. In outline:
as §1

In experiment [17] the test system is T-T (Esophageal Squamous Cell Carcinoma). Described as above. In outline: as §1
For experiment [18], the system named is KU812 (Chronic Myelogenous Leukemia). The description is as above. In short, it runs like this: as §1
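For Bliss excess, mean over the matrix in this document: after 72 h of two-drug dosing.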

As for `C[C@@H](Oc1cc(-c2cnn(C3CCNCC3)c2)cnc1N)c1c(Cl)ccc(F)c1Cl` [Crizotinib] + Cn1cnc2c(F)c(Nc3ccc(Br)cc3Cl)c(C(=O)NOCCO)cc21 [Selumetinib] (first compound max 10 µM, 7x7, partner max 10 µM), in the experiment with NCI-H2731 (Mesothelioma) [1], the “combination Emax” value was 0.519. The Bliss excess in experiment [2] is -0.0797; in the experiment on SJSA-1 (Osteosarcoma), 0.0262; in [3] it was -0.0423; in experiment [4], -0.0503; in [5], -0.0229; in experiment [6], -0.0421. In addition, the Bliss excess is -0.0401 in experiment [7]; -0.0779 in [8]; -0.0479 in [9]; -0.0423 in experiment [10]; -0.0382 in the experiment with NCI-H2731 (Mesothelioma) [11]; -0.0338 in [12]. Also, the Bliss excess in experiment [13] was -0.0142; in experiment [14] it was -0.0814; in experiment [15], -0.0405; with M059J (Glioblastoma) it was -0.0562; in experiment [16] it was 0.0039; in [17], 0.0159. Further, the Bliss excess in experiment [18] was -0.0466.
As for `N#Cc1cnc(Nc2cc(NC[C@H]3CNCCO3)c(C(F)(F)F)cn2)cn1` [SRA737] + O=c1[nH]cc(F)c(=O)[nH]1 [5-Fluorouracil] (first compound max 10 µM, 7x7, partner max 20 µM), the “combination Emax” value with NCI-H2731 (Mesothelioma) [1] worked out at 0.172. The Bliss excess in [2] is -0.0751; in the experiment with SJSA-1 (Osteosarcoma) it was 0.0126; in experiment [3] it was 0.0039; in experiment [4], -0.0561; in experiment [6] it was 0.0184; in experiment [7], 0.0646. Moreover, the Bliss excess in experiment [8] was -0.0306; in [9], 0.0315; in experiment [10] it was -0.001; with NCI-H2731 (Mesothelioma) [11], -0.0374; in experiment [12] it was -0.0163; in experiment [13] it was 0.0854. Besides, the Bliss excess in experiment [14] is -0.0757; in experiment [15], -0.0187; with M059J (Glioblastoma), 0.0052; in experiment [16] it was 0.127; in experiment [17], 0.0483; in experiment [18], -0.0726.
In the case of `N#Cc1cnc(Nc2cc(NC[C@H]3CNCCO3)c(C(F)(F)F)cn2)cn1` [SRA737] + CCc1c2c(nc3ccc(O)cc13)-c1cc3c(c(=O)n1C2)COC(=O)[C@]3(O)CC [SN-38] (first compound max 10 µM, 7x7, partner max 0.3 µM), in the experiment with NCI-H2731 (Mesothelioma) [1], the “combination Emax” value was 0.478. In addition, the Bliss excess in [2] is -0.0495; in the experiment with SJSA-1 (Osteosarcoma), -0.0751; in experiment [3], -0.0853; in experiment [4] it was 0.0294; in experiment [5] it was -0.0089; in experiment [6], -0.0781. The Bliss excess in experiment [7] was -0.067; in experiment [8] it was -0.0063; in experiment [9], -0.0454; in [10], -0.0105; with NCI-H2731 (Mesothelioma) [11], -0.005; in [12], -0.0348. Besides, the Bliss excess in experiment [13] is -0.0427; in experiment [14], -0.0589; in experiment [15], -0.0544; in the experiment with M059J (Glioblastoma), -0.0326; in experiment [16] it was -0.0265; in experiment [17] it was 0.0451. Also, the Bliss excess in experiment [18] was -0.0939.
As to `Cc1c2c(nn1C)CSCc1cc(n(C)n1)CSc1cc(c3ccccc3c1)OCCCc1c(C(=O)O)n(C)c3c-2c(Cl)ccc13` [AZD5991] + CS(=O)(=O)CCNCc1ccc(-c2ccc3ncnc(Nc4ccc(OCc5cccc(F)c5)c(Cl)c4)c3c2)o1 [Lapatinib] (first compound max 1 µM, 7x7, partner max 10 µM), the “combination Emax” value with NCI-H2731 (Mesothelioma) [1] turned out to be 0.44. Further, the Bliss excess in [2] is -0.0584; in the experiment on SJSA-1 (Osteosarcoma), -0.0115; in experiment [3], 0.0142; in experiment [4], -0.0119; in [5], -0.003; in experiment [6] it was -0.0113. In addition, the Bliss excess in [7] was -0.0516; in experiment [8], 0.0111; in experiment [9], -0.0164; in [10], -0.0322; in the experiment on NCI-H2731 (Mesothelioma) [11], 0.0234; in experiment [12], -0.0195. Besides, the Bliss excess in experiment [13] was 0.0226; in [14], -0.0358; in experiment [15], 0.0391; with M059J (Glioblastoma), -0.0103; in experiment [16] it was 0.016; in [17], 0.0522. Also, the Bliss excess in experiment [18] was -0.0005.
As to `Cc1c2c(nn1C)CSCc1cc(n(C)n1)CSc1cc(c3ccccc3c1)OCCCc1c(C(=O)O)n(C)c3c-2c(Cl)ccc13` [AZD5991] + CC(=O)O[C@H]1C(=O)[C@@]2(C)[C@H]([C@H](OC(=O)c3ccccc3)[C@]3(O)C[C@H](OC(=O)[C@H](O)[C@@H](NC(=O)c4ccccc4)c4ccccc4)C(C)=C1C3(C)C)[C@]1(OC(C)=O)CO[C@@H]1C[C@@H]2O [Paclitaxel] (first compound max 1 µM, 7x7, partner max 3 µM), the “combination Emax” value in the experiment on NCI-H2731 (Mesothelioma) [1] came out at 0.397. Further, the Bliss excess in [2] was -0.0293; in the experiment with SJSA-1 (Osteosarcoma), -0.0168; in experiment [3], -0.0199; in experiment [4] it was 0.0449; in experiment [5], -0.0622; in experiment [6], -0.0219. In addition, the Bliss excess is 0.0141 in experiment [7]; -0.0478 in experiment [8]; -0.0003 in experiment [9]; 0.0341 in experiment [10]; 0.0237 in the experiment with NCI-H2731 (Mesothelioma) [11]; -0.0234 in [12]. Moreover, the Bliss excess in experiment [13] was 0.0061; in experiment [14], 0.0975; in experiment [15], -0.0197; in the experiment on M059J (Glioblastoma), -0.0193; in experiment [16] it was -0.0116; in [17] it was -0.0016. In addition, the Bliss excess in [18] is -0.108.
Take `C[C@@H](Nc1cc(F)cc(F)c1)c1cc(C(=O)N(C)C)cc2c(=O)cc(N3CCOCC3)oc12` [AZD8186] + CC(=O)c1c(C)c2cnc(Nc3ccc(N4CCNCC4)cn3)nc2n(C2CCCC2)c1=O [Palbociclib] (first compound max 10 µM, 7x7, partner max 10 µM): the “combination Emax” value with NCI-H2731 (Mesothelioma) [1] was 0.233. Further, the Bliss excess in experiment [2] was -0.0082; in the experiment with SJSA-1 (Osteosarcoma) it was -0.0268; in [3] it was 0.0464; in experiment [4], 0.0183; in [5], 0.0123; in [6], -0.0272. The Bliss excess is 0.0401 in experiment [7]; 0.111 in experiment [8]; 0.0528 in [9]; 0.0077 in [10]; -0.0036 with NCI-H2731 (Mesothelioma) [11]; 0.12 in experiment [12]. The Bliss excess in experiment [13] is -0.0207; in experiment [14], 0.0178; in experiment [15], -0.0649; with M059J (Glioblastoma), -0.006; in experiment [16] it was -0.0036; in experiment [17] it was 0.0135. Also, in [18], the Bliss excess is 0.0412.
Consider `CS(=O)(=O)CCNCc1ccc(-c2ccc3ncnc(Nc4ccc(OCc5cccc(F)c5)c(Cl)c4)c3c2)o1` [Lapatinib] + NC1(c2ccc(-c3nc4ccn5c(=O)[nH]nc5c4cc3-c3ccccc3)cc2)CCC1 [MK-2206] (first compound max 10 µM, 7x7, partner max 10 µM), for which, in the experiment on NCI-H2731 (Mesothelioma) [1], the “combination Emax” value amounted to 0.894. Moreover, the Bliss excess in experiment [2] is 0.0332; with SJSA-1 (Osteosarcoma), -0.0402; in [3], -0.0434; in experiment [4] it was -0.0143; in experiment [5], -0.0194; in [6], -0.0278. Further, the Bliss excess in experiment [7] was 0.0739; in [8] it was 0.0011; in experiment [9], -0.0497; in experiment [10], -0.0681; with NCI-H2731 (Mesothelioma) [11] it was 0.0201; in experiment [12], 0.0019. The Bliss excess in experiment [13] is 0.0254; in experiment [14], 0.0721; in experiment [15] it was 0.0402; with M059J (Glioblastoma), -0.0047; in experiment [16] it was 0.0262; in experiment [17], -0.0168. The Bliss excess in [18] was -0.0194.
